Data as given in patent publication US20240417398A1, “TETRAHYDRONAPTHYRIDINE AND RELATED ANALOGS FOR INHIBITING YAP/TAZ-TEAD” (SpringWorks Therapeutics, Inc., priority 2023, published 2024).

Legend:
Type in all cases: cell-based
NCI-H226 = experiment: Mesothelioma cell line proliferation assay (ATPlite), NCI-H226; details: NCI-H226 cells, 6 days with compound, ATPlite cell viability
Method: (§1) Mesothelioma cell lines, NCI-H226 and NCI-H2052 (both sourced from the ATCC cell culture collection) were plated in 96-well plates (Corning® 96 Well White Polystyrene Microplate clear flat bottom, white polystyrene (TC-Treated)), at 1500 cells/well in full medium (RPMI 1640 ATCC modification with L-glutamine, HEPES, Phenol Red, Sodium Pyruvate, High glucose, Low sodium bicarbonate and 10% fetal bovine serum). Cells were incubated overnight at 37° C. in an incubator with 5% CO2. Then compounds, dissolved in DMSO, were added in dose-response. Cells were incubated with compound dilutions for another 6 days at 37° C. in an incubator with 5% CO2. Cell viability was quantitated using the ATPlite kit (Perkin-Elmer) and the luminescence was read-out using an Envision instrument (Perkin-Elmer). The amount of relative light units produced using the ATPlite kit was used to calculate percent of inhibition.
(§2) The activities of some example compounds are depicted in Table 4. The activity ranges A, B and C refer to EC50 values in the mesothelioma cell line proliferation assay as described as follows: “A”: EC50<1 μM; “B”: 1 μM≤EC50<10 μM and “C”: EC50>10 μM; NT: not tested.

[1] = system: YAP/TAZ-TEAD transcription; experiment: Reporter gene assay for measuring the inhibition of YAP/TAZ-TEAD transcription (TEAD-responsive element luciferase reporter, Hek293T cells); details: Hek293T cells transfected with TEAD-responsive element luciferase reporter, 24 hours incubation
Summary of the method: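 HEK293T cells transiently transfected with a TEAD-responsive luciferase reporter are plated on compounds and incubated 24 h at 37 °C/5% CO2, then read with SteadyLite luminescence. Percent inhibition is normalised to vehicle (0%) and a positive-control inhibitor (100%); IC50 is derived from these values.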

NCI-H2052 = experiment: Mesothelioma cell line proliferation assay (ATPlite), NCI-H2052; details: NCI-H2052 cells, 6 days with compound, ATPlite cell viability
Method: as §1, §2

Structure (SMILES) | IC50 ([1]; Homo sapiens, HEK-293T, 24 h) [µM] | EC50 (NCI-H226; Homo sapiens, 144 h) [µM] | EC50 (NCI-H2052; Homo sapiens, 144 h) [µM] | also measured
C=CC(=O)NCC1Cc2c(OCc3cc[nH]c(=O)c3)cccc2N(c2ccc(C(F)(F)F)cc2)C1 (single isomer, unassigned) [Cpd. No. 6-En1, (R)- or (S)-N-((5-((2-oxo-1,2-dihydropyridin-4-yl)methoxy)-1-(4-(trifluoromethyl)phenyl)-1,2,3,4-tetrahydroquinolin-3-yl)methyl)acrylamide] | < 1 | – | – | EC50 (NCI-H226): < 1 µM
C=CC(=O)NCC1Cc2c(OCc3cc(=O)[nH]c(=O)n3C)cccc2N(c2ccc(C(F)(F)F)cc2)C1 (single isomer, unassigned) [Cpd. No. 14-En1, (R)- or (S)-N-((5-((3-methyl-2,6-dioxo-1,2,3,6-tetrahydropyrimidin-4-yl)methoxy)-1-(4-(trifluoromethyl)phenyl)-1,2,3,4-tetrahydroquinolin-3-yl)methyl)acrylamide] | < 1 | < 1 | < 1 | –
C=CC(=O)NCC1Cc2c(OCc3cc(=O)[nH]c(=O)n3C)cccc2N(c2ccc(C(F)(F)F)cc2)C1 (single isomer, unassigned) [Cpd. No. 14-En2, (R)- or (S)-N-((5-((3-methyl-2,6-dioxo-1,2,3,6-tetrahydropyrimidin-4-yl)methoxy)-1-(4-(trifluoromethyl)phenyl)-1,2,3,4-tetrahydroquinolin-3-yl)methyl)acrylamide] | – | – | – | EC50 (NCI-H226): < 1 µM; EC50 (NCI-H2052): < 1 µM
CCC(=O)NCC1Cc2ncccc2N(c2ccc(C(F)(F)F)cc2)C1 (single isomer, unassigned) [Cpd. No. 17-En2, (R)- or (S)-N-((1-(4-(trifluoromethyl)phenyl)-1,2,3,4-tetrahydro-1,5-naphthyridin-3-yl)methyl)propionamide] | – | < 1 | < 1 | IC50 [1]: < 1 µM
COc1ccc2c(n1)CC(CNC(C)=O)CN2c1ccc(C(F)(F)F)cc1 (single isomer, unassigned) [Cpd. No. 22-En2, (R)- or (S)-N-((6-methoxy-1-(4-(trifluoromethyl)phenyl)-1,2,3,4-tetrahydro-1,5-naphthyridin-3-yl)methyl)acetamide] | – | < 1 | < 1 | IC50 [1]: < 1 µM
[2H]C([2H])([2H])C(=O)NCC1Cc2ncccc2N(c2ccc(C(F)(F)F)cc2)C1 (single isomer, unassigned) [Cpd. No. 34-En2, (R)- or (S)-N-((1-(4-(trifluoromethyl)phenyl)-1,2,3,4-tetrahydro-1,5-naphthyridin-3-yl)methyl)acetamide-2,2,2-d3] | – | < 1 | < 1 | IC50 [1]: < 1 µM
C=CC(=O)NCC1Cc2c(OCc3cc(=O)[nH]c(=O)[nH]3)cccc2N(c2ccc(C(F)(F)F)cc2)C1 (stereo not drawn) [Cpd. No. 4, N-((5-((2,6-dioxo-1,2,3,6-tetrahydropyrimidin-4-yl)methoxy)-1-(4-(trifluoromethyl)phenyl)-1,2,3,4-tetrahydroquinolin-3-yl)methyl)acrylamide] | < 1 | < 1 | < 1 | –
CCC(=O)NCC1Cc2c(OCc3cc[nH]c(=O)c3)cccc2N(c2ccc(C(F)(F)F)cc2)C1 (stereo not drawn) [Cpd. No. 7, N-((5-((2-oxo-1,2-dihydropyridin-4-yl)methoxy)-1-(4-(trifluoromethyl)phenyl)-1,2,3,4-tetrahydroquinolin-3-yl)methyl)propionamide] | < 1 | < 1 | < 1 | –
CC(=O)NCC1Cc2ncccc2N(c2ccc(C(F)(F)F)cn2)C1 (stereo not drawn) [Cpd. No. 53, N-((1-(5-(trifluoromethyl)pyridin-2-yl)-1,2,3,4-tetrahydro-1,5-naphthyridin-3-yl)methyl)acetamide] | 1 to 10 | – | – | –
CC(=O)NCC1Cc2c(ccn(C)c2=O)N(c2ccc(C(F)(F)F)cc2)C1 (stereo not drawn) [Cpd. No. 54, N-((6-methyl-5-oxo-1-(4-(trifluoromethyl)phenyl)-1,2,3,4,5,6-hexahydro-1,6-naphthyridin-3-yl)methyl)acetamide] | < 1 | – | – | –
CC(=O)NCC1Cc2nccnc2N(c2ccc(C(F)(F)F)cc2)C1 (stereo not drawn) [Cpd. No. 56, N-((5-(4-(trifluoromethyl)phenyl)-5,6,7,8-tetrahydropyrido[2,3-b]pyrazin-7-yl)methyl)acetamide] | < 1 | – | – | –
CC(=O)NCC1Cc2nc(C3CC3)ccc2N(c2ccc(C(F)(F)F)cc2)C1 (stereo not drawn) [Cpd. No. 57, N-((6-cyclopropyl-1-(4-(trifluoromethyl)phenyl)-1,2,3,4-tetrahydro-1,5-naphthyridin-3-yl)methyl)acetamide] | < 1 | – | – | –
CC(=O)NCC1Cc2nc(C(N)=O)ccc2N(c2ccc(C(F)(F)F)cc2)C1 (stereo not drawn) [Cpd. No. 59, 7-(acetamidomethyl)-5-(4-(trifluoromethyl)phenyl)-5,6,7,8-tetrahydro-1,5-naphthyridine-2-carboxamide] | > 10 | – | – | –
CC(=O)NCC1Cc2nc(C(F)F)ccc2N(c2ccc(C(F)(F)F)cc2)C1 (stereo not drawn) [Cpd. No. 61, N-((6-(difluoromethyl)-1-(4-(trifluoromethyl)phenyl)-1,2,3,4-tetrahydro-1,5-naphthyridin-3-yl)methyl)acetamide] | 1 to 10 | – | – | –
C#Cc1ccc2c(n1)CC(CNC(C)=O)CN2c1ccc(C(F)(F)F)cc1 (stereo not drawn) [Cpd. No. 63, N-((6-ethynyl-1-(4-(trifluoromethyl)phenyl)-1,2,3,4-tetrahydro-1,5-naphthyridin-3-yl)methyl)acetamide] | < 1 | – | – | –

Second part, led by results:

IC50 ([1]; Homo sapiens, HEK-293T, 24 h) [µM] | EC50 (NCI-H226; Homo sapiens, 144 h) [µM] | EC50 (NCI-H2052; Homo sapiens, 144 h) [µM] | Structure (SMILES) | also measured
– | < 1 | < 1 | C=CC(=O)NCC1Cc2c(OCc3cc[nH]c(=O)c3)cccc2N(c2ccc(C(F)(F)F)cc2)C1 (single isomer, unassigned) [Cpd. No. 6-En2, (R)- or (S)-N-((5-((2-oxo-1,2-dihydropyridin-4-yl)methoxy)-1-(4-(trifluoromethyl)phenyl)-1,2,3,4-tetrahydroquinolin-3-yl)methyl)acrylamide] | IC50 [1]: < 1 µM
< 1 | < 1 | < 1 | C=CC(=O)NCC1Cc2ncccc2N(c2ccc(C(F)(F)F)cc2)C1 (single isomer, unassigned) [Cpd. No. 10-En1, (R)- or (S)-N-((1-(4-(trifluoromethyl)phenyl)-1,2,3,4-tetrahydro-1,5-naphthyridin-3-yl)methyl)acrylamide] | –
– | < 1 | < 1 | CC(=O)NCC1Cc2ncccc2N(c2ccc(C(F)(F)F)cc2)C1 (single isomer, unassigned) [Cpd. No. 12-En2, (R)- or (S)-N-((1-(4-(trifluoromethyl)phenyl)-1,2,3,4-tetrahydro-1,5-naphthyridin-3-yl)methyl)acetamide] | IC50 [1]: < 1 µM
– | < 1 | < 1 | CC(=O)NCC1Cc2nc(C)ccc2N(c2ccc(C(F)(F)F)cc2)C1 (single isomer, unassigned) [Cpd. No. 26-En2, (R)- or (S)-N-((6-methyl-1-(4-(trifluoromethyl)phenyl)-1,2,3,4-tetrahydro-1,5-naphthyridin-3-yl)methyl)acetamide] | IC50 [1]: < 1 µM
– | < 1 | < 1 | CC(=O)NCC1(C)Cc2ncccc2N(c2ccc(C(F)(F)F)cc2)C1 (single isomer, unassigned) [Cpd. No. 47-En1, (R)- or (S)-N-((3-methyl-1-(4-(trifluoromethyl)phenyl)-1,2,3,4-tetrahydro-1,5-naphthyridin-3-yl)methyl)acetamide] | IC50 [1]: < 1 µM
< 1 | < 1 | < 1 | C=CC(=O)NCC1Cc2c(OCc3cc[nH]c(=O)c3)cccc2N(c2ccc(C(F)(F)F)cc2)C1 (stereo not drawn) [Cpd. No. 6, N-((5-((2-oxo-1,2-dihydropyridin-4-yl)methoxy)-1-(4-(trifluoromethyl)phenyl)-1,2,3,4-tetrahydroquinolin-3-yl)methyl)acrylamide] | –
< 1 | – | – | CCc1ccc2c(n1)CC(CNC(C)=O)CN2c1ccc(C(F)(F)F)cc1 (stereo not drawn) [Cpd. No. 55, N-((6-ethyl-1-(4-(trifluoromethyl)phenyl)-1,2,3,4-tetrahydro-1,5-naphthyridin-3-yl)methyl)acetamide] | –
> 10 | – | – | CC(=O)NCC1Cc2nc(C#N)ccc2N(c2ccc(C(F)(F)F)cc2)C1 (stereo not drawn) [Cpd. No. 58, N-((6-cyano-1-(4-(trifluoromethyl)phenyl)-1,2,3,4-tetrahydro-1,5-naphthyridin-3-yl)methyl)acetamide] | –
< 1 | – | – | CC(=O)NCC1Cc2nc(OC(F)F)ccc2N(c2ccc(C(F)(F)F)cc2)C1 (stereo not drawn) [Cpd. No. 60, N-((6-(difluoromethoxy)-1-(4-(trifluoromethyl)phenyl)-1,2,3,4-tetrahydro-1,5-naphthyridin-3-yl)methyl)acetamide] | –
< 1 | – | – | CC(=O)NCC1Cc2nc(Br)ccc2N(c2ccc(C(F)(F)F)cc2)C1 (stereo not drawn) [Cpd. No. 62, N-((6-bromo-1-(4-(trifluoromethyl)phenyl)-1,2,3,4-tetrahydro-1,5-naphthyridin-3-yl)methyl)acetamide] | –
